Molecular target: T1, C3aR (Rattus norvegicus, UniProt O55197)
T1 construct: characterize for the first time a C3aR-induced innate immune response in vivo in rats; from tissue; host or cells: live male Wistar rats, hind paw
T1 sequence (O55197 1-473): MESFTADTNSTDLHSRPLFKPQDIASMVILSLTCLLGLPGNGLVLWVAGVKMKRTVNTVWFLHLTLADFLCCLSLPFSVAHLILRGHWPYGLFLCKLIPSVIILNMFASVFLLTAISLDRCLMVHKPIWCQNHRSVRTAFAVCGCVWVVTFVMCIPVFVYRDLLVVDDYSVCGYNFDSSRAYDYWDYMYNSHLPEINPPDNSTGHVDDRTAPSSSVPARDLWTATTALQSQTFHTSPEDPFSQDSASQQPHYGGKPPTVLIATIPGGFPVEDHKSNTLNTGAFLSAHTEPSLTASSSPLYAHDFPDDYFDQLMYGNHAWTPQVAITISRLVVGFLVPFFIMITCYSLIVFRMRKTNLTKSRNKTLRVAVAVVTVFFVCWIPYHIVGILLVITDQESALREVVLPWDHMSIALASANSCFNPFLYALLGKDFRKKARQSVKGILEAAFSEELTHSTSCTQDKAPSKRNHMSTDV
Assay: Agonist-induced acute rat paw edema and immune responses
Type: in vivo
Description: Male Wistar rats (8–9 weeks) were injected with BR103 (3, 350 μg in 100 μL isotonic saline) into the plantar surface of both hind paw pads using a 30G needle. The inhibitor cromolyn (20 mg/kg in 5% DMSO) was injected subcutaneously 30 min before the agonist. The antagonist BR111 (6, 5–20 mg/kg in olive oil) was administered orally as a single dose 2 h before the agonist. Paw thickness and width were measured using digital calipers (WPI) at 0, 0.5, 2, 6 and 24 h after agonist BR103 administration. Hind paw size is expressed as % change in area from baseline after 0.5 h and then normalized against maximum swelling induced by agonist alone. Researchers were not blinded to treatments given.
Rat paw tissue was collected and fixed in 4% paraformaldehyde (pH 7.4) for 2 h in the cold room (4 °C). The rat paw tissue was then transferred into falcon tubes containing 30% sucrose solution in PBS and left overnight in the cold room. The next day, rat paw tissue was embedded with the Optimal Cutting Temperature compound (OCT, Sakura Finetek, USA) and stored in the −80 °C freezer before being used for making cryo-sections for histological analysis. Frozen sections of 5 microns were prepared using a cryostat-microtome (Leica Biosystems, Germany) and stained using standard protocols on the same day. In normal histological staining, such as with alcian blue and safranin O and hematoxylin and eosin (H&E), samples were briefly washed with distilled water before staining. In alcian blue and safranin O, samples were stained with 0.1% alcian blue (Sigma-Aldrich, USA) and 0.5% safranin O (Sigma-Aldrich, USA) before being mounted in mounting medium. In H&E, samples were stained with hematoxylin (Sigma-Aldrich, USA) and 0.1% eosin (Sigma-Aldrich, USA) before being mounted in mounting medium. In immunohistochemistry, samples were briefly rinsed with PBS to remove OCT and incubated with blocking medium (PBS, 0.1% triton X-100, 10% horse serum) for 1 h at room temperature. Samples were incubated with primary antibody medium (PBS, 4% horse serum, 1:200 histamine or 1:200 of tryptase or 1:150 ED1 or 1:200 ED2 antibodies) overnight at 4 °C. The next day, samples were washed with PBS and were incubated with the secondary antibody medium (PBS, 4% horse serum, detection antibody 1:1000) for 1 h at room temperature. The samples were briefly rinsed, dried and counterstained with DAPI (Invitrogen, Australia). Primary antibodies for histamine (Sigma-Aldrich, USA, H2403, monoclonal rabbit anti-rat IgG, 1: 200), tryptase (Abcam, Australia, ab2378, monoclonal mouse anti-rat IgG, 1:200), ED1 (Serotec, UK, MCA341R, monoclonal mouse anti-rat, 1:150), ED2 (Serotec, UK, MCA3424R, monoclonal mouse anti-rat, 1:200) were purchased from commercial sources. Secondary detection antibody was purchased from (Invitrogen, Australia). ED1 & ED2 positive cells were quantified using FIJI/ImageJ 1.42q software, U.S. National Institutes of Health, Bethesda, MD, USA[44]. All microscope images were obtained using an Olympus BX-51 upright microscope with Olympus DP-71 12Mp colour camera, utilizing DP Capture and DP Manager software packages (Olympus, Tokyo, Japan). Researchers who performed histological analysis and scoring were blinded to the sample identity.
Rat paw tissues were collected and immediately frozen with liquid nitrogen. The frozen rat paw tissue samples were weighed and crushed into smaller pieces with a mortar and pestle in liquid nitrogen. The crushed tissues were added to MPO buffer (50 mM potassium phosphate buffer, pH 6.0) to make up a concentration of 200 mg/mL and homogenized using Zirconium oxide beads (Next Advance, USA) and the Bullet Blender® homogeniser (Next Advance, USA). The homogenized tissues were then diluted to 100 mg/mL with the MPO buffer containing 1% hexadecyl trimethylamonium bromide (Sigma-Aldrich, USA) and underwent three cycles of freeze, thaw, and sonication. […]

[1] = 350 µg per paw i.pl., 0.5 h, vs vehicle
[2] = male Wistar rats, 350 µg per paw, i.pl.

## Cc1[nH]c(C(c2ccccc2)c2ccccc2)nc1C(=O)N[C@@H](CCCNC(=N)N)C(=O)O [Compound 3]
[1]
  Activated mast cells in paw tissue: increased number of activated mast cells
  Histamine secretion in paw tissue: increased histamine secretion
  Infiltration of ED1+ macrophages: temporal increase in infiltration of inflammatory ED1^+ macrophages
  Tryptase-positive cells in paw tissue: decreased tryptase-positive cells
350 µg per paw i.pl., vs vehicle
  Resident ED2+ macrophage cell numbers: without significantly affecting resident ED2^+ macrophage cell numbers
350 µg/paw i.pl., 0.5, 6, 24 h, vs vehicle
  Proinflammatory gene expression (Il1β, Il6, Tnf, Ccl3, Mcp1) in paw: induced the upregulation of many proinflammatory genes
350 µg/paw i.pl., 30 min, 6 h, 24 h, vs sham
  Myeloperoxidase (MPO) activity in paw: increased myeloperoxidase (MPO) activity at 6 h, but not at 30 min or 24 h
[2]
  Paw edema induction: induced an acute inflammatory edema
  Time of peak paw swelling: 0.5 h
